Usually half-life stands for the time needed for the level to fall by half in the phase considered.

We go through one substance from US12201634B2, “Methods of treating depression using orexin-2 receptor antagonists” (Janssen Pharmaceutica NV, priority 2016, dated 2025).

The nature of data set [1]: Posology: plasma pharmacokinetics after oral 20 mg and repeated nighttime administration (Example 2). Type of data set: in vivo, human. On the procedure: Blood and saliva were collected for the assessment of biomarkers, among others. Venous blood samples (3 mL each) were collected in fasting condition between 8:00 and 10:00 am for the determination of [5(4,6-dimethyl-pyrimidin-2-yl)-hexahydro-pyrrolo[3,4-c]pyrrol-2-yl]-(2-fluoro-2-[1,2,3]triazol-2-yl-phenyl)-methanone plasma concentrations and biomarkers related to immune system activity, Hypothalamus pituitary adrenal (HPA) axis activation, neurotropic factors and metabolic factors were measured. Pharmacokinetic (PK) blood samples also were collected. Plasma samples were analyzed to determine concentrations of Compound A using LC-MS/MS. Saliva was collected for the measurement of concentrations of cortisol. Saliva concentrations of cortisol were added as a biomarker.
(§1) (once daily) in the evening over 10 days for women of child bearing potential (WOCBP) or 4 weeks for males and women of non-child bearing potential (WONCBP). […] Males and WONCBP took 1 capsule every evening just before bedtime from Day 1 to Day 28. WOCBP took 1 capsule every evening just before bedtime from Day 1 to Day 10. There were 2 follow up visits occurring at 3 and 14 days.
The magnitude of the effect of Compound A on LPS and TST is directly related to level of insomnia at baseline. See, FIGS. 12-15.

Data set [2] deals with subjects with a diagnosis of MDD. In words: Polysomnography (TST, LPS) in MDD study (Example 2). Type of data set: in vivo, human.
Text: Men and women with a diagnosis of MDD between the ages of 18 and 64, inclusive, were enrolled.
as §1
For the evaluation of symptoms of depression, assessments were done at screening and during the study. Specifically, symptoms of depression were performed using the Mini International Neuropsychiatric Interview (MINI) 6.0 interview, or Hamilton rating scale for Depression-17 (HDRS17). Also, polysomnography (PSG) was performed to quantify sleep stages including latency to persistent sleep (LSP) and total sleep time (TST). Thereafter, symptoms of depression were taking on days 11 and 29 during treatment and days 3 and 14 following treatment. PSG was recorded overnight after the first and tenth dose administration of study medication.
The effects of study medication on polysomnography (PSG)-derived parameters was evaluated overnight on Days 1/2 and 10/11. In addition, PSG was recorded up to and following a forced wake overnight on Day 5/6. Two screening PSG recordings were made and baseline values were calculated as the average values recorded at Screening 1 and 2.
TST is defined as total minutes spent in rapid eye movement (REM) and non-REM sleep.
LPS is defined as the elapsed time (in minutes) from lights out to 10 minutes of continuous sleep.

Data set [3] deals with subjects with insomnia disorder (ID). Kind of data set: Nighttime administration in subjects with insomnia disorder (statement). Type of data set: in vivo, human.
Data set [4] deals with subjects diagnosed with MDD. Kind of data set: HDRS17 / HAM-D6 ratings, Group 1 monotherapy (Example 3). In kind it is in vivo, human. On the procedure: Specifically, Compound A was administered to subjects diagnosed with MDD (i) as a monotherapy and (ii) in combination with a known anti-depressant and the symptoms of depression of the subjects evaluated using the HDRS17 and HAM-D6 scale
Each subject in Group 2 also took an amount of antidepressant selected from duloxetine, citalopram, paroxetine, or sertraline and as prescribed by their attending physician. For the evaluation of symptoms of depression for both groups, assessments were independently performed at screening and on Day 11, i.e., one day after the study, using HDRS17 and HAM-D6 as described in Example 2. In Tables 11-12, # denotes the Cohen effect size, * denotes P<0.05 (statistically significant), and ** denotes P<0.01.

Data set [5] addresses T1, orexin-2 receptor (Homo sapiens, UniProt O43614).
T1 sequence (O43614 1-444): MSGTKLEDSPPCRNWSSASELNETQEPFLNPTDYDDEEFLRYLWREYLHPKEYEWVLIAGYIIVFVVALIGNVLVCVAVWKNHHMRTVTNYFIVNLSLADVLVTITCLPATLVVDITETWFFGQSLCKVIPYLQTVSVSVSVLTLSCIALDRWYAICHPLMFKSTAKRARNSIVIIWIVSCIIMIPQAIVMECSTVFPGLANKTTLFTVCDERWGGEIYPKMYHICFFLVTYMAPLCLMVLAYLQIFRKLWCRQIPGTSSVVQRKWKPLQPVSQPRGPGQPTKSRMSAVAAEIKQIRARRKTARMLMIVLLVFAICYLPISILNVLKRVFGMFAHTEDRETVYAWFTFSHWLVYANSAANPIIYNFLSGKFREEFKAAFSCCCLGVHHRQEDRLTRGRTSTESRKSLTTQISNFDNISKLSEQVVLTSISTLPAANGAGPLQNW
Kind of data set: Orexin-2 receptor antagonism (statement). The conditions noted are these: orally active.

As for “[5(4,6-dimethyl-pyrimidin-2-yl)-hexahydro-pyrrolo[3,4-c]pyrrol-2-yl]-(2-fluoro-2-[1,2,3]triazol-2-yl-phenyl)-methanone [Compound A]”, the “accumulation on repeated daily dosing” value in data set [1] (nighttime administration, 10 days daily) is “did not result in accumulation”. In addition, in data set [1] (oral 20 mg), the half-life was 2 to 3 h and the “time to maximal plasma concentrations (Tmax)” value was under 1 h. In addition, in data set [2] (Day 1/2), the “Latency to Persistent Sleep (LPS), change from baseline” value is 8.7 min and the “Total Sleep Time (TST), change from baseline” value worked out at 30.9 min. Moreover, in data set [2] (Day 10/11), the “Latency to Persistent Sleep (LPS), change from baseline” value is given as 9.2 min and the “Total Sleep Time (TST), change from baseline” value worked out at 26.56 min. Also, in data set [2] (overnight on Day 1/2), the “LPS compared to placebo” value was “modestly reduced LPS” and the “TST compared to placebo” value is on record as “increased TST”. For the same substance, in data set [3], the “latency to persistent sleep (LPS)” value was “reduced” and the “total sleep time (TST)” value is reported as “prolongs”. Besides, in data set [4] (Group 1, Day 11), the “Adjusted HDRS Effect Size Compound A vs Placebo (Cohen effect size)” value is −0.93; the “Adjusted HDRS mean score (SD), change from baseline” value is listed as −4.3 (2.97)*; the “Anxiety-Somatization Factor Effect Size Compound A vs Placebo (Cohen effect size)” value is given as −0.51; the “Anxiety-Somatization Factor mean score (SD), change from baseline” value is given as −1.6 (1.65). In data set [4] (Group 1, Day 11), the “HAM-D6 Effect Size Compound A vs Placebo (Cohen effect size)” value is −1.22; the “HAM-D6 mean score (SD), change from baseline” value is listed as −3.6 (2.33)**; the “HDRS17 Effect Size Compound A vs Placebo (Cohen effect size)” value was −0.64; the “HDRS17 mean score (SD), change from baseline” value was −5.1 (3.97). For the same substance, in data set [4] (untreated subjects with MDD), the “antidepressant efficacy as monotherapy” value is listed as “has antidepressant efficacy”. For the same substance, the “activity at orexin-2 receptor” value in data set [5] is “selective antagonist”.
